Values joined by “and” are separate entries in the source; they are usually repeats but may differ in a detail not shown here. Equal values may be shown once.
Tests used:
Assay type in all cases: cell-based, human
BT474 cells = test: High throughput clonogenic assay, trastuzumab and roscovitine; conditions: agents alone or in combination
Protocol: (§1) FIGS. 27A-27B. […] FIG. 27B. […] Isobologram analysis and graphs were obtained using CalcuSyn software, which performs drug dose—effect calculation using the median effect method. Experiments were performed in triplicate and representative data are shown.

SKBr3 cells = test: as above; conditions: agents alone or in combination
Protocol: as §1

MCF-7/Ac1 cells [1] = test: Cell number of adenovirus-infected cells (LacZ, cyclin EL, T1, T2); conditions: 20 uM, uninfected, LacZ or cyclin E-T1 infected cells
From the text: LMW cyclin E, but not full-length cyclin E, overexpressing MCF-7/Ac1 cells partially override the letrozole inhibition of AD-induced S-phase entry and AD-induced CDK2 protein levels. Since overexpression of LMW cyclin E deregulates the G1 to S transition, the inventors interrogated the role of full-length and LMW cyclin E in letrozole response. To this end, the inventors examined the sensitivity of cyclin E overexpressing MCF-7/Ac1 cells to the growth inhibitory effect of letrozole using adenoviruses to overexpress full-length and LMW cyclin E (FIGS. 24A-24D). MCF-7/Ac1 cells were cultured in charcoal stripped serum media (CSSM) for 4 days before infecting them with 4000 m.o.i. of either LacZ, full-length cyclin E (cyclin EL) or LMW cyclin E (cyclin E-T1 and cyclin E-T2). Twenty-four hours later, cells were left either untreated, treated with 25 nM AD alone, or treated with 25 nM AD plus 1 μM letrozole for an additional 3 days (FIGS. 24A-24B). Following the treatment, cells were enumerated or subjected to flow cytometry analysis.
MCF-7/Ac1 cells were cultured in IMEM with 10% charcoal-stripped serum medium (CSSM) without phenol red and with 600 μg/ml of G418 for 4 days before plating. Triplicate wells of 6-well plates were then infected with the indicated adenoviruses (at 4000 m.o.i.) 24 hours before drug treatment. Cells were then left untreated (E2W, estrogen withdrawal) or treated with 25 nM AD (AD) or treated with 25 nM AD and 1 μM letrozole (AD+Let) and collected 3 days later for cell number. Cell growth is expressed as the percentage of the cells compared with the control cells (25 nM AD treated cells). […] MCF-7/Ac1 cells were treated as described in A, and collected for flow cytometry analysis. Histograms represent the S-phase fraction expressed as the percentage of the cells in S-phase compared with the control cells (25 nM AD treated cells). […] The same cell lysates as in A and B were subjected to western blot analysis (50 μg of protein) with cyclin E and CDK2 antibodies. The bar graph represents the densitometric values of the phosphorylated CDK2 bands. […] Left, MCF-7/Ac1 cells were cultured in IMEM with 10% charcoal-stripped serum medium (CSSM) without phenol red and with 600 μg/ml of G418 for 4 days before plating. Cells were then infected with the indicated adenoviruses (at 4000 m.o.i.) 24 hours before drug treatment. Cells were then treated with 25 nM AD and 1 μM letrozole and collected 3 days later for cell number. […] Columns, mean of two to three experiments, each in triplicates; bars, S.D.
To directly address this question, MCF-7/Ac1 cells were cultured in charcoal stripped serum media (CSSM) for 4 days before adding medium with no virus or with 4000 m.o.i. of either LacZ, or LMW cyclin E (cyclin E-T1) adenoviruses. 24 hours later, cells were left untreated, treated with 25 nM AD alone, or treated with 25 nM AD plus 1 μM letrozole for 3 days (FIG. 24D). The AD-induced growth of MCF-7/Ac1 cells was inhibited by letrozole by 51% in uninfected cells and by 58% in LacZ infected cells while the growth of cyclin E-T1 infected cells was inhibited by only 20% (FIG. 24D, left).

[2] = test system: cyclin E and CDK2 complexes in MCF-7/Ac1 cells; test: Immunoprecipitation of cyclin E or CDK2 followed by western blot for p21 and p27; conditions: 25 nM AD
Protocol: (§2) Immunoprecipitation and Immunoblotting. Two hundred fifty μg of cell extracts were used per immunoprecipitation with polyclonal antibody to cyclin E or polyclonal antibody to CDK2, coupled to protein A beads. After being washed, the immunoprecipitates were subjected to electrophoresis in 13% gels, transferred to Immobolin P, blocked, and incubated with the indicated antibodies as already described.
(§3) MCF-7/Ac1 cells were treated with the indicated concentrations of letrozole and AD for 3 days. Cyclin E kinase assays were performed by immunoprecipitating equal amounts of cell lysate (250 μg) with monoclonal antibodies to cyclin E coupled to protein A beads, using histone H1 as substrate. […] The same cell lysates were subjected to western blot analysis (50 μg of protein) with the indicated antibodies. […] The same cell lysates were first immunoprecipitated with cyclin E followed by western blot for p21 and p27. […] The same cell lysates were first immunoprecipitated with CDK2 followed by western blot for p21 and p27. The levels of proteins were measured by densitometric scanning of the corresponding bands and normalized using actin values. The values indicated at the bottom were compared to the values obtained with untreated cells.

[3] = test system: cyclin E-associated kinase activity in MCF-7/Ac1 cells; test: Cyclin E-associated kinase assay (histone H1); conditions: 25 nM AD, 3 days
Protocol: as §2, §3

MCF-7/Ac1 cells [4] = test: Western blot of CDK2, phospho-CDK2, cyclin E, pRb; conditions: 25 nM AD
Protocol: FIG. 28. Effect of increasing concentrations of letrozole in the presence of 25 nM AD on CDK2 kinase activity, activated CDK2 and Rb phosphorylation of MCF7/Ac1 human breast cancer cells. MCF-7/Ac1 cells were treated with the indicated concentrations of letrozole and AD for 3 days. CDK2 kinase assays were performed by immunoprecipitating equal amounts of cell lysate (250 μg) with monoclonal antibodies to CDK2 (D12, sc-6248) coupled to protein G beads, using histone H1 as substrate. […] The same cell lysates were subjected to western blot analysis (50 μg of protein) with the indicated antibodies.
(§4) Western blot analysis. Cell lysates were prepared and subjected to western blot analysis as described previously (Akli et al., 2004). Briefly, 50 μg of protein were subjected to electrophoresis on SDS-PAGE and transferred to Immobilon P overnight at 4° C. at […] constant voltage. The blots were blocked overnight at 4° C. in BLOTTO [5% nonfat dried milk in 20 mM Tris, 137 mM NaCl, and 0.05% Tween (pH 7.6)]. After being washed, the blots were incubated in primary antibodies for 3 h. Primary antibodies used were cyclin E (HE-12; Santa Cruz Biotechnology), p21 (0P64; Oncogene Research Products, Boston, Mass.), p27 (K25020; BD Biosciences-Transduction Laboratories, Lexington, Ky.), cyclin-dependent kinase 2 (CDK2; Transduction Laboratories), and actin (Chemicon International, Inc., Temecula, Calif.). Blots were then incubated with goat anti-mouse or anti-rabbit immunoglobulin-horseradish peroxidase conjugate at a dilution of 1:5000 in BLOTTO for 1 h and finally washed and developed by using the Renaissance chemiluminescence system as directed by the manufacturer (Perkin-Elmer Life Sciences, Inc., Boston, Mass.). Western blots were quantitated by densitometric analysis using IPLab Gel software (Scientific Image Processing, Vienna, Va.). Densitometric values of actin were used to standardize for equal protein loading. These values were introduced into the software Graph-Pad Prism version 4.0 (GraphPad Software, Inc., San Diego, Calif.) for statistical analysis.
as §3

MCF-7/Ac1 cells [5] = test: Cell growth by cell counting, AD-stimulated cells; conditions: 3 days
Protocol: Cell growth. The effects of the aromatase inhibitors on MCF7/Ac1 cells growth were examined by counting the cells at the indicated time. The cells were detached from their flask using trypsin and counted using a Coulter counter machine.
To examine the effects of the three different aromatase inhibitors on the proliferation of MCF-7/Ac1 cells, cells were cultured in estrogen deprived, charcoal stripped serum media (CSSM). The response of the cells to 25 nM of androstenedione (AD) alone or AD plus one of the 3 aromatase inhibitors letrozole (FIG. 22A), anastrozole (FIG. 22B), and exemestane (FIG. 22C) was measured after 3 days of treatment. Cells maintained in CSSM were used as controls.
FIGS. 22A-22C show the effect of aromatase inhibitor treatment on proliferative response and cell cycle distribution of MCF-7/Ac1 cells. Cells were cultured in IMEM with 10% charcoal-stripped serum medium (CSSM) without phenol red and with 600 μg/ml of G418 for 4 days before plating. Cells (100,000) were seeded in 100 mm dishes and, 24 hrs later, were exposed for 3 days to the specific treatment. […] CSSM, untreated cells cultured in charcoal-stripped serum medium without phenol red and with 600 μg/ml of G418.

MCF-7/Ac1 cells [6] = test: Sequential AD/letrozole then roscovitine treatment: cell number and CDK2 western blot; conditions: additional two days in medium or medium plus DMSO
Protocol: Medium alone or medium plus DMSO were used as controls. A schematic of the treatment strategy is depicted in FIG. 25A. At the conclusion of the treatment, cells were enumerated and subjected to western blot analysis with CDK2 (total) and phospho-CDK2 antibodies.
Cells were then infected with the indicated adenoviruses (at 4000 m.o.i.) 24 hours before drug treatment.

[7] = test system: CDK2 protein in MCF-7/Ac1 cells; test: Western blot of CDK2 protein levels in adenovirus-infected cells; conditions: 25 nM AD, uninfected and LacZ infected cells
Protocol: as §4
MCF-7/Ac1 cells were cultured in IMEM with 10% charcoal-stripped serum medium (CSSM) without phenol red and with 600 μg/ml of G418 for 4 days before plating. […] Cells were then infected with the indicated adenoviruses (at 4000 m.o.i.) 24 hours before drug treatment.

MCF-7/Ac1 cells [8] = test: Cell cycle analysis by flow cytometry (PI)
Protocol: Cell cycle analysis. MCF-7/Ac1 cells were cultured in estrogen-deprived media with or without 25 nM 4-androstenedione, and treated with different concentrations of aromatase inhibitors. Untreated and drug treated cells were collected 72 hours later for flow cytometry and lysates were prepared for western blot and kinase assays.
Flow cytometry analysis. Cells were pelleted and resuspended in 1.5 ml of PBS, then fixed in 3.5 ml of 95% ethanol overnight at −20° C. After being washed, the pellets were resuspended in a solution of PBS containing 10 μg/ml propidium iodide, 20 μg/ml RNase A, 0.5% Tween 20, and 0.5% BSA and incubated at 37° C. for 30 min. The profiles of cells in the G0-G1, S, and G2-M phases of the cell cycle were analyzed at the M. D. Anderson Cancer Center Cytometry Core Facility on a FACS Caliber machine equipped with Cellquest or ModFit software.
FIGS. 22A-22C show the effect of aromatase inhibitor treatment on proliferative response and cell cycle distribution of MCF-7/Ac1 cells. Cells were cultured in IMEM with 10% charcoal-stripped serum medium (CSSM) without phenol red and with 600 μg/ml of G418 for 4 days before plating. Cells (100,000) were seeded in 100 mm dishes and, 24 hrs later, were exposed for 3 days to the specific treatment. […] Cell growth is expressed as the percentage of the cells compared with the control cells (25 nM AD treated cells, 575,000 cells at day 3). Columns, mean of two to three experiments, each in triplicates; bars, S.D. *, P<0.05, when compared to cells only treated with 25 nM AD; n.s, not significant. CSSM, untreated cells cultured in charcoal-stripped serum medium without phenol red and with 600 μg/ml of G418.

Which results are given for `CC[C@H](CO)Nc1nc(NCc2ccccc2)c2ncn(C(C)C)c2n1` [roscovitine]?
cell viability (BT474 cells): dose-dependent reduction in cell viability; cell viability (SKBr3 cells): dose-dependent reduction in cell viability; inhibition of AD-induced increase in cell number (MCF-7/Ac1 cells [1]): completely inhibited

Which results are given for `C[C@]12CCC(=O)C=C1CC[C@@H]1[C@@H]2CC[C@]2(C)C(=O)CC[C@@H]12` [AD, androstenedione]?
increase in p21 binding to CDK2 [2]: 1.5 fold; p21 binding to cyclin E [2]: did not affect; increase in cyclin E-associated kinase activity compared to vehicle treated cells [3]: 1.6 fold; cyclin E protein levels (MCF-7/Ac1 cells [4]): not affected; increase in CDK2 protein levels compared to vehicle treated cells (MCF-7/Ac1 cells [4]; 3 days): 2.3 fold; increase in phospho-CDK2 (MCF-7/Ac1 cells [4]; phospho-specific CDK2 antibody): 3.5 fold; increase in cell number compared to control cells (CSSM) (MCF-7/Ac1 cells [5]; 25 nM AD): 3.9+/−1.3 fold; increase in AD-induced proliferation (MCF-7/Ac1 cells [6]; LMW cyclin E overexpressing cells): 2.3 fold and 2.8 fold; increase in AD-induced proliferation (MCF-7/Ac1 cells [6]; LacZ infected cells): 3.5 fold; increase in AD-induced proliferation (MCF-7/Ac1 cells [6]; uninfected cells): 4 fold; increase in total CDK2 protein levels [7]: 1.8 fold; fraction of cells in S phase (MCF-7/Ac1 cells [8]; 25 nM AD alone): 40.3+/−1.9%; increase of fraction of cells in S phase compared to vehicle treated cells (MCF-7/Ac1 cells [8]; 25 nM AD alone): 7.3 fold; cells in G0-G1 (MCF-7/Ac1 cells [8]; 25 nM AD alone (baseline of exemestane comparison)): 35.1+/−0.8%

How did the “inhibition of AD-induced growth” value (MCF-7/Ac1 cells [5]; any of the concentrations tested, with 25 nM AD) turn out when `CC(C)(C#N)c1cc(Cn2cncn2)cc(C(C)(C)C#N)c1` [anastrozole] was run?
Its value is “did not inhibit”.

And the “effect on cell cycle distribution” value (MCF-7/Ac1 cells [8]; 10 μM, with 25 nM AD)?
Its value is “more subtle effect”.

For `C=C1C[C@@H]2[C@H](CC[C@]3(C)C(=O)CC[C@@H]23)[C@@]2(C)C=CC(=O)C=C12` [exemestane], which inhibition at 1 µM (MCF-7/Ac1 cells [5]; Homo sapiens, MCF7, 72 h, 1 μM, with 25 nM AD, read-out: inhibition of AD-induced growth) is on record?
The inhibition at 1 µM was 25%.

What about the inhibition at 10 µM (MCF-7/Ac1 cells [5]; Homo sapiens, MCF7, 72 h, 10 μM, with 25 nM AD, read-out: inhibition of AD-induced growth) of the same molecule?
Its inhibition at 10 µM is 42%.

What about the “cells in G0-G1” value (MCF-7/Ac1 cells [8]; 10 μM, with 25 nM AD) of the same molecule?
The value was 49.2+/−0.7%.

And the “cells in S phase” value (MCF-7/Ac1 cells [8]; 10 μM, with 25 nM AD)?
Its value is 31.7+/−2.5%.
